Experimental findings from PMC11912728, “L-asparaginase from the novel Fusarium falciforme AUMC 16563: extraction, purification, characterization, and cytotoxic effects on PC-3, HePG-2, HCT-116, and MCF-7 cell lines” (BMC Microbiology, 2025) are described below.

Structures are written as SMILES.

This experiment relates to T1, L-asparaginase (pure asparaginase) from Fusarium falciforme AUMC 16563.
T1 construct: native extracellular enzyme purified from culture supernatant (ethanol, DEAE-cellulose, Sephacryl S-200 HR)
The experiment in a line: Nesslerization (ammonia release, […] nm), Lineweaver-Burk. Type of experiment: biochemical. The settings on record: substrate 2.0-20.0 mM; pH and temperature of the kinetic assay not given.
A word on the Km: it is the substrate concentration at which the rate is half of its maximum. As to `NC(=O)C[C@H](N)C(=O)O` [L-asparagine], the Km came out at 0.0577 mM.
For `N[C@@H](CC(=O)O)C(=O)O` [aspartic acid] the value was 10.1 mM; for `N[C@@H](CCC(=O)O)C(=O)O` [glutamic acid], 12.2 mM; for `NC(=O)CC[C@H](N)C(=O)O` [L-glutamine], 9.12 mM.
